These results are taken from US20140275711A1, “1-(Arylmethyl)-5,6,7,8-tetrahydroquinazolline-2,4-diones and Analogs and the Use Thereof” (Impact Therapeutics, Inc., priority 2011, published 2014).

For orientation: IC50 means the midpoint of a concentration-inhibition curve. One may read the EC50 as the concentration needed to bring the measured effect to its halfway point.

Assay [1] concerns SW620 human colorectal cancer cells. As to the kind of experiment: Potentiation of the growth inhibiting activity of MMS, MTT based cell viability assay. Conditions: read-out: Compounds potentiate the growth inhibiting activity of MMS (IC50).
Experimental: The synergistic potentiation effect of PARP inhibitors on the growth inhibiting activity of DNA damaging anticancer drugs such as methyl methanesulphonate (MIMS) were measured with SW620 human colorectal cancer cells (Shanghai Cancer Institute) using a MTT based cell viability assay. SW620 cells were grown and maintained in RPMI1640 (Gibco) medium supplemented with 10% FBS (Hyclone). In the first day of experiment, 4000 cells were seeded to each well of a 96-well cell culture plate and incubated at 37° C. and 5% CO2 in a cell culture incubator overnight. In the next day, the cell culture medium was removed. […] The serial dilutions of the reference compounds and the compounds to be tested were made with a 1:3 and 1:10 fashion in DMSO. The 10-fold concentrated solutions of these compounds were made by mixing 10 μl of the serial dilutions in DMSO with 90 μl fresh medium. The final concentration of DMSO in the medium was 1%. The cells were incubated at 37° C. in 5% CO2 cell culture incubator for additional 5 days (120 hours). Afterwards, the 96-well cell culture plate was taken out and 20 μl of MTT solution was added to each well and incubated at 37° C. for 4 h. The medium was removed and 100 μl DMSO was added to each well. The 96-well cell culture plates were shaked adequately for 10 min and readed in a Varioskan Flash plate reader (Thermo Fisher Scientific) at 520 and 690 nm. The data were analyzed by Prism 5 software (GraphPad). The obtained 520 nm absorbance readings substracting corresponding 690 nm reading were analyzed and plotted against the Log scale of the compound concentrations.
Assay [2] deals with BRCA-2 deficient CAPAN-1 human pancreatic cancer cells. Put plainly: Cell growth inhibition of BRCA-2 deficient CAPAN-1 cells, MTT based cell viability assay. Conditions: read-out: Growth inhibition of CAPAN-1 cells by compounds (IC50).
Experimental: BRCA-2 deficient CAPAN-1 human pancreatic cancer cells were used to test the growth inhibiting activity of substituted 1-(arylmethyl)-5,6,7,8-tetrahydroquinazoline-2,4(1H,3H)-diones. Briefly, CAPAN-1 cells are grown and maintained in IMEM medium supplemented with 20% FBS. The assay takes 10 days to finish. On day 1, 6000 CAPAN-1 cells are seeded to each well of a 96-well plate. The cells are incubated at 37° C. in a CO2 cell culture incubator overnight. […] Ten-fold compound solutions were made by mixing 10 μl DMSO serial dilution solutions with 90 μl fresh growth medium. The cell culture medium was removed and 180 μl fresh media with FBS and 20 μl of compound solutions were added to each well. The final concentration of DMSO was 1%. Cells were then returned to the CO2 cell culture incubator and incubated at 37° C. for two days (day 3 and day 4). On day 5, the same procedure as what was done on day 2 was repeated. Cell culture medium was removed and fresh medium containing serial dilutions of compounds or reference compounds were added. Cells were returned to the CO2 cell culture incubator and incubated for two more days. On day 8, same procedure was repeated again and fresh medium containing the testing compounds or reference compounds were added and incubated for an additional 2 days. On day 10, 20 μl of MTT reagent (5 mg/ml) was added to each well of the cell culture plate and incubated for 4 h. The cell culture media was removed and 100 μl DMSO was added to each well. The 96-well cell culture plates were shaked horizontally for 10 min and readed in a Varioskan Flash plate reader (Thermo Fisher Scientific) at 520 and 690 nm. The obtained 520 nm absorbance readings substracting corresponding 690 nm reading were analyzed using a commercial graphic software (GraphPad Prism 5) and plotted against the Log scale of the compound concentrations.
For assay [3], the system named is Human breast cancer cell line T47D. As to the kind of experiment: Potentiation of MMS induced apoptosis, cell based caspase-3 activity assay.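 Further: Caspase-3 activity in cell lysates measured by fluorescence (RFU), EC50 fitted from sigmoidal curve of signal versus log compound concentration in presence of MMS.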 Conditions: read-out: Compounds potentiate the apoptosis inducing activity of MMS (EC50).
Experimental: Human breast cancer cell line T47D (Nanjing KeyGEN Biotech. CO., LTD.) was used to determine the potentiation effect of PARP-1 inhibitors on the apoptosis inducing activity of DNA damaging anticancer drugs such as MMS. Intracellular caspase-3 activity was used to measure cell apoptosis. Briefly, T47D cells were grown in DMEM/F12 cell culture medium (Hyclone) supplemented with 0.2 U/ml insulin (Genview) and 10% FBS (Hyclone). A day before experiment, 20000 of T47D cells were seeded to each well of a 96-well cell culture plate and maintained at 37° C. and 5% CO2 in a cell culture incubator overnight. On the day of experiment, cell culture medium was removed. […] The serial dilutions of the compounds to be tested and the reference compounds were made in a 1:3 and 1:10 fashion in DMSO. The 10-fold compound solutions were made by mixing 10 μl DMSO serial dilution solutions with 90 μl fresh growth medium. Twenty four hours later, the cells in the 96-well plates were centrifuged at 1000 g for 5 min and the supernatants were removed. 50 μl lysis buffer (10 mM Tris, pH 7.5, 0.1M NaCl, 1 mM EDTA, 0.01% Triton X-100) was added to each well and the plates were shaked horizontally for 30 min at 4° C. After centrifugation at 1000 g at 4° C. for 10 min, 20 μl of supernatant was transferred from each well to a corresponding well in a 384-well black plate. […] The plates were shaked to uniformly mix the wells and incubated at 37° C. for 3 h. […] The caspase-3 activity induced by the compounds was expressed as a relative fluorescence unit (RFU). The obtained fluorescence readings were analyzed using a commercial graphic software (GraphPad Prism 5) and plotted against the Log value of the compound concentrations. The EC50 values were obtained by fitting the data points with the equation of Y (fluorescence reading)=minimal fluorescence reading+(maximal fluorescence reading−minimal fluorescence reading)/(1+10̂(LogEC50−LogC)), where C is the concentration of the testing compound. The EC50 values were obtained by fitting the data points with S-shaped dose response curve equation (GraphPad Software, Inc).
The mark [4] stands for this setting: SW620 cells, medium containing 1.5 μg/ml MMS, 5 days (120 hours), MTT.
The mark [5] stands for this setting: BRCA-2 deficient CAPAN-1 cells, 10 day assay, MTT.
Where [6] appears, read: T47D cells, 100 nM MMS, 24 hours, intracellular caspase-3 activity.

Where two headings read alike, the source gives them in different places.

Consider `O=C(c1cccc(Cn2c3c(c(=O)[nH]c2=O)CCCC3)c1)N1CCN(c2ncccn2)CC1` [Example 5, 1-(3-(4-(Pyrimidin-2-yl)piperazine-1-carbonyl)benzyl)-5,6,7,8-tetrahydroquinazoline-2,4(1H,3H)-dione], for which the IC50 came to 15 nM in assay [1] (Homo sapiens, SW-620, 120 h) and 22 nM in assay [2] (Homo sapiens, CAPAN-1, 240 h). Moreover, in assay [3] (Homo sapiens, T47D, 24 h), the EC50 stood at 3.5 nM.

As to `O=C(c1ccc(F)c(Cn2c3c(c(=O)[nH]c2=O)CCCC3)c1)N1CCN(C(=O)C2CCC2)CC1` [Example 50, 1-(6-Fluoro-3-(4-(cyclobutylcarbonyl)piperazine-1-carbonyl)benzyl)-5,6,7,8-tetrahydroquinazoline-2,4(1H,3H)-dione], the IC50 in assay [1] (Homo sapiens, SW-620, 120 h) amounted to 16 nM; in assay [2] (Homo sapiens, CAPAN-1, 240 h) it was 1000 nM. Besides, in assay [3] (Homo sapiens, T47D, 24 h), the EC50 came out at 12 nM.

Turning to `O=C(c1ccoc1)N1CCN(C(=O)c2cc(Cn3c4c(c(=O)[nH]c3=O)CCCC4)ccc2F)CC1` [Example 35, 1-(4-Fluoro-3-(4-(furan-3-carbonyl)piperazine-1-carbonyl)benzyl)-5,6,7,8-tetrahydroquinazoline-2,4(1H,3H)-dione], the IC50 in assay [1] (Homo sapiens, SW-620, 120 h) worked out at 4 nM; in assay [2] (Homo sapiens, CAPAN-1, 240 h), 285 nM. The EC50 in assay [3] (Homo sapiens, T47D, 24 h) stood at 12 nM.

`O=C(c1cc(Cn2c3c(c(=O)[nH]c2=O)CCCC3)ccc1F)N1CCN(C(=O)C2CCOCC2)CC1` [Example 53, 1-(4-Fluoro-3-(4-(tetrahydro-2H-pyran-4-carbonyl)piperazine-1-carbonyl)benzyl)-5,6,7,8-tetraquinazoline-2,4(1H,3H)-dione]: the IC50 in assay [1] (setting [4]) came out at 61 nM; in assay [2] (setting [5]), 272 nM. Further, the EC50 in assay [3] (setting [6]) stood at 98 nM.

In the case of `O=C(c1ccc(F)c(Cn2c3c(c(=O)[nH]c2=O)CCCC3)c1)N1CCN(c2nccs2)CC1` [Example 51, 1-(6-Fluoro-3-(4-(thiazol-2-yl)piperazine-1-carbonyl)benzyl)-5,6,7,8-tetrahydroquinazoline-2,4(1H,3H)-dione], the half-inhibitory concentration (IC50) worked out at 13 nM in assay [1] (Homo sapiens, SW-620, 120 h) and 134 nM in assay [2] (Homo sapiens, CAPAN-1, 240 h). Moreover, in assay [3] (Homo sapiens, T47D, 24 h), the EC50 came to 11 nM.

As for `O=C(c1cc(Cn2c3c(c(=O)[nH]c2=O)CCCC3)ccc1F)N1CCN(C(=O)C2CCCO2)CC1` (stereo not drawn) [Example 39, 1-(4-Fluoro-3-(4-(tetrahydrofuran-2-carbonyl)piperazine-1-carbonyl)benzyl)-5,6,7,8-tetrahydroquinazoline-2,4(1H,3H)-dione], the IC50 turned out to be 15 nM in assay [1] (Homo sapiens, SW-620, 120 h) and 152 nM in assay [2] (Homo sapiens, CAPAN-1, 240 h). The EC50 in assay [3] (Homo sapiens, T47D, 24 h) is 32 nM.

On to `O=C(c1cc(Cn2c3c(c(=O)[nH]c2=O)CCCC3)ccc1F)N1CCN(C(=O)C2CCC2)CC1` [Example 22, 1-(4-Fluoro-3-(4-(cyclobutylcarbonyl)piperazine-1-carbonyl)benzyl)-5,6,7,8-tetrahydroquinazoline-2,4(1H,3H)-dione], for which the IC50 in assay [1] (Homo sapiens, SW-620, 120 h) turned out to be 1.7 nM; in assay [2] (Homo sapiens, CAPAN-1, 240 h), 117 nM. Besides, the EC50 in assay [3] (Homo sapiens, T47D, 24 h) is 2.8 nM.

For the compound `O=C(c1cc(Cn2c3c(c(=O)[nH]c2=O)CCCC3)ccc1F)N1CCN(c2nccs2)CC1` [Example 23, 1-(4-Fluoro-3-(4-(thiazol-2-yl)piperazine-1-carbonyl)benzyl)-5,6,7,8-tetrahydroquinazoline-2,4(1H,3H)-dione], the 50% inhibitory concentration (IC50) in assay [1] (Homo sapiens, SW-620, 120 h) was determined as 1.5 nM; in assay [2] (Homo sapiens, CAPAN-1, 240 h), 49 nM. Besides, the 50% effective concentration (EC50) in assay [3] (Homo sapiens, T47D, 24 h) was determined as 1.6 nM.

As for `O=C(c1cc(Cn2c3c(c(=O)[nH]c2=O)CCCC3)ccc1F)N1CCN(C2CCCCC2)CC1` [Example 30, 1-(4-Fluoro-3-(4-cyclohexylpiperazine-1-carbonyl)benzyl)-5,6,7,8-tetrahydroquinazoline-2,4(1H,3H)-dione], the IC50 was 12 nM in assay [1] (Homo sapiens, SW-620, 120 h) and 1240 nM in assay [2] (Homo sapiens, CAPAN-1, 240 h). In assay [3] (Homo sapiens, T47D, 24 h), the EC50 amounted to 32 nM.

Turning to `O=C(c1cc(Cn2c3c(c(=O)[nH]c2=O)SCCC3)ccc1F)N1CCN(c2ncccn2)CC1` [Example 60], the values for the IC50 in assay [1] (setting [4]) and in assay [2] (setting [5]) were 7.6 nM and 761 nM, respectively. In assay [3] (setting [6]), the EC50 is 30 nM.

In the case of `O=C(c1cc(Cn2c3c(c(=O)[nH]c2=O)CCCC3)ccc1F)N1CCN(c2cnccn2)CC1` [Example 28, 1-(4-Fluoro-3-(4-(pyrazin-2-yl)piperazine-1-carbonyl)benzyl)-5,6,7,8-tetrahydroquinazoline-2,4(1H,3H)-dione], the IC50 turned out to be 4.9 nM in assay [1] (Homo sapiens, SW-620, 120 h) and 297 nM in assay [2] (Homo sapiens, CAPAN-1, 240 h). In addition, in assay [3] (Homo sapiens, T47D, 24 h), the concentration giving a half-maximal response (EC50) came to 14 nM.

With `O=C(c1cc(Cn2c3c(c(=O)[nH]c2=O)CCCC3)ccc1F)N1CCN(C(=O)C2CCCC2)CC1` [Example 25, 1-(4-Fluoro-3-(4-(cyclopentylcarbonyl)piperazine-1-carbonyl)benzyl)-5,6,7,8-tetrahydroquinazoline-2,4(1H,3H)-dione], the IC50 worked out at 1.9 nM in assay [1] (Homo sapiens, SW-620, 120 h) and 69 nM in assay [2] (Homo sapiens, CAPAN-1, 240 h). For the same compound, the EC50 in assay [3] (Homo sapiens, T47D, 24 h) came to 6.2 nM.

In the case of `O=C(c1ccc(F)c(Cn2c3c(c(=O)[nH]c2=O)CCCC3)c1)N1CCN(c2ncccn2)CC1` [Example 41], the IC50 in assay [1] (setting [4]) is 4.1 nM; in assay [2] (setting [5]) it was 19 nM. In assay [3] (setting [6]), the EC50 is 2.2 nM.

In the case of `O=C(c1cc(Cn2c3c(c(=O)[nH]c2=O)CCCC3)ccc1F)N1CCN(CC2CCCCC2)CC1` [Example 38, 1-(4-Fluoro-3-(4-(cyclohexylmethyl)piperazine-1-carbonyl)benzyl)-5,6,7,8-tetrahydroquinazoline-2,4(1H,3H)-dione], the IC50 stood at 10 nM in assay [1] (Homo sapiens, SW-620, 120 h) and 2270 nM in assay [2] (Homo sapiens, CAPAN-1, 240 h). Besides, the concentration for a half-maximal effect (EC50) in assay [3] (Homo sapiens, T47D, 24 h) worked out at 25 nM.

Consider `O=C(c1cccc(Cn2c3c(c(=O)[nH]c2=O)CCCC3)c1)N1CCN(c2ccccn2)CC1` [Example 11, 1-(3-(4-(Pyridin-2-yl)piperazine-1-carbonyl)benzyl)-5,6,7,8-tetrahydroquinazoline-2,4(1H,3H)-dione], for which the IC50 in assay [1] (Homo sapiens, SW-620, 120 h) stood at 6.9 nM; in assay [2] (Homo sapiens, CAPAN-1, 240 h), 32 nM. In addition, the EC50 in assay [3] (Homo sapiens, T47D, 24 h) is 31 nM.

Consider `O=C(c1ccccc1)N1CCN(C(=O)c2cc(Cn3c4c(c(=O)[nH]c3=O)CCCC4)ccc2F)CC1` [Example 18, 1-(4-Fluoro-3-(4-benzoylpiperazine-1-carbonyl)benzyl)-5,6,7,8-tetrahydroquinazoline-2,4(1H,3H)-dione], for which the IC50 was 9.5 nM in assay [1] (Homo sapiens, SW-620, 120 h) and 35 nM in assay [2] (Homo sapiens, CAPAN-1, 240 h). Moreover, the EC50 in assay [3] (Homo sapiens, T47D, 24 h) was 41 nM.

As for `O=C(c1ccc(F)c(Cn2c3c(c(=O)[nH]c2=O)CCCC3)c1)N1CCN(C(=O)C2CCCC2)CC1` [Example 42, 1-(6-Fluoro-3-(4-(cyclopentylcarbonyl)piperazine-1-carbonyl)benzyl)-5,6,7,8-tetrahydroquinazoline-2,4(1H,3H)-dione], the IC50 in assay [1] (Homo sapiens, SW-620, 120 h) was 4.8 nM; in assay [2] (Homo sapiens, CAPAN-1, 240 h), 146 nM. For the same compound, the EC50 in assay [3] (Homo sapiens, T47D, 24 h) was 4 nM.

With `O=C(c1cc(Cn2c3c(c(=O)[nH]c2=O)CCCC3)ccc1F)N1CCN(C(=O)C2CCCCC2)CC1` [Example 24, 1-(4-Fluoro-3-(4-(cyclohexylcarbonyl)piperazine-1-carbonyl)benzyl)-5,6,7,8-tetrahydroquinazoline-2,4(1H,3H)-dione], the IC50 turned out to be 3.6 nM in assay [1] (Homo sapiens, SW-620, 120 h) and 58 nM in assay [2] (Homo sapiens, CAPAN-1, 240 h). In addition, in assay [3] (Homo sapiens, T47D, 24 h), the EC50 was 9.9 nM.

Take `O=C(c1ccc(F)c(Cn2c3c(c(=O)[nH]c2=O)CCCC3)c1)N1CCN(C(=O)C2CCCCC2)CC1` [Example 49, 1-(6-Fluoro-3-(4-(cyclohexylcarbonyl)piperazine-1-carbonyl)benzyl)-5,6,7,8-tetrahydroquinazoline-2,4(1H,3H)-dione]: the IC50 in assay [1] (Homo sapiens, SW-620, 120 h) was found to be 5.3 nM; in assay [2] (Homo sapiens, CAPAN-1, 240 h), 123 nM. Moreover, in assay [3] (Homo sapiens, T47D, 24 h), the EC50 stood at 7.2 nM.
